Experimental data: US20160287563A1, “Cysteine Prodrugs” (Promentis Pharmaceuticals, Inc., priority 2011, published 2016)

Columns and labels:
[1] = Tissue glutathione in the MAM neurodevelopmental model of schizophrenia; type: in vivo; conditions: rats in the MAM neurodevelopmental model (MAM 22 mg/kg IP on gestational day 17)
Method: (§1) This approach would have the added benefit of allowing assessing the impact of the compounds on cognitive changes that are thought to be relevant to schizophrenia. Thus, one would be able to test the hypothesis that the conditions that normalize glutathione are also conditions that are expected to improve cognitive performance.
Timed pregnant Sprauge-Dawley rats are given an acute injection of methylazoxymethanol (MAM; 22 mg/kg, IP) or vehicle on gestational day 17. Following vaginal birth, all mothers and offspring are left undisturbed until weaning on postnatal day 22.

[2] = test system: MAM-treated rats; test: Attentional Set Shifting in MAM-treated rats; type: in vivo
Source text: as §1
Seven days prior to testing the animals will be food deprived to 85% of their free-feeding weight. Rats will be trained and tested on a four-arm cross maze (60×20×12 inches), constructed from Plexiglas with a removable arm to form a “T” configuration. On the first habituation day, the rat will be allowed to explore and consume up to 20 sugar pellets for 15 minutes. On the second day, the maze will be baited with 12 pellets for 15 minutes. On subsequent days, only one pellet will be placed at the end of each arm. This procedure will be continued daily until the rat consumes 16 sugar pellets in 15 minutes. Once achieved, the turn bias will be determined by forming a “T” configuration with the removable arm. A black-and-white piece of laminated paper for a visual cue will be placed on the floor in one of the arms. One pellet will be placed in each food well of the “T” arms. The rat will then be placed in the stem arm and allowed to choose between the two arms. […]

[3] = test system: cultured cells; test: Glutathione levels in cultured cells exposed to oxidative stress agents; type: cell-based; conditions: iron 0-120 min exposure to 0-100 microM; ethacrynic acid 0-30 min exposure to 0-10 microM
Source text: First, the experiment described in part 1A is repeated, except the harvested tissue is exposed to agents that induce oxidative stress which would prompt the cells to use/increase the synthesis of glutathione (the details are provided below).

Row | SMILES | tissue levels of glutathione in cultured cells [3] | further results
1 | C[N+]([O-])=NCO [MAM, methylazoxymethanol] |  | tissue levels of glutathione [1]: modest reduction in tissue levels of glutathione
2 | CC(=O)N[C@@H](CS)C(=O)O [NAC, N-acetyl cysteine] |  | Attentional Set Shifting deficit [2]: can be restored
3 | C=C(CC)C(=O)c1ccc(OCC(=O)O)c(Cl)c1Cl [ethacrynic acid] | decrease tissue levels of glutathione | 
4 | [Fe] [iron] | decrease tissue levels of glutathione | 
